Reference: US9399032B2, “Methods and compositions for treating degenerative and ischemic disorders” (The General Hospital Corporation, priority 2009, dated 2016)

Tests used:
MCH58 fibroblasts = conditions: 72 h, 10 µM
Method: The assay included monitoring or measuring cell growth in cells that are grown in glucose (which allows the cell to utilize glycolysis) or in galactose (which switches the cell energy production from glycolysis to the OXPHOS pathway).
The high glucose medium was replaced with 10 mM glucose or 10 mM galactose wherever indicated. All media contained 1 mM pyruvate and 4 mM glutamine.
Cell number quantification high throughput assays were performed as follows. […] 24 hours later, cells were washed twice in PBS and media was replaced with either 10 mM glucose or 10 mM galactose containing media.
Approximately 100 nL of each compound was pin-transferred in duplicate into the plates with a steel pin array using the CyBi-Well robot (CyBio). […] Compound-treated plates were incubated at 37° C. for 72 hours. […] Wells were then washed once and stored in PBS. Cell culture plates were stored at 4° C. until time of imaging, which was at most 24 hours after fixation.
Imaging was performed by Arrayscan VTi automated microscope (ThermoFisher Scientific) with the use of an automated plate stacker. Appropriate filter sets for the detection of the Hoescht fluorescent signal were used. Four non-overlapping images at 5× magnification (NA 0.25) were acquired for a field of view of 1.3 mm×1.3 mm per image. The plate stacker and microscope including an auto-focusing algorithm were controlled entirely with ArrayScan software. Images were captured and stored simultaneously in at least two independent locations. Image analysis was performed using the freely available open-source software package CellProfiler. […] Images were analyzed individually by first identifying nuclei using the Hoescht staining signal.
Total number of nuclei per field were recorded, and the four images per well were totaled to give the cell count per well. Computation was performed using a UNIX computer cluster. Appropriate masking of each nucleus was ensured by visually monitoring each batch at its onset and intermittently throughout the run.
The fibroblast cells were seeded on Day 0 and incubated for 24 hours in standard culture media.
Normalized cell counts were computed separately for each 96-well plate by dividing the cell count of each well with the trimmed mean (the average after discarding the largest and smallest value) of the cell counts for the 16 DMSO treated wells. […] The remaining replicate measurements were averaged, and fold changes were computed as the ratio between the average normalized counts for the glucose and galactose screens. To evaluate statistical significance, Z-scores were computed for each well against the DMSO (null) distribution and averaged Z-scores across replicates. Wells with average Z-score greater than 2.5 were considered significant.
By jointly analyzing the glucose and galactose results, a glucose-galactose cell growth ratio can be calculated (Sglu/gal) that represents the log10 fold-change in cell growth in a glucose rich media divided by the log10 fold-change in cell growth in a galactose rich media. […] Low Sglu/gal scores (e.g., ranging between approximately (−) 0.1 to (−) 0.7) may arise from inhibition of glycolysis or from inhibition of proliferation, since cells grown in glucose-rich media divide more rapidly.

[1] = system: STHdhQ111/111 striatal cells; assay: Viability of mutant huntingtin striatal cells after serum withdrawal (CellTiter-Glo); assay type: cell-based, murine; conditions: serum free media, 24 hours
Method: Wherever indicated, mutant (STHdh^Q111/111) striatal cells were grown in serum free media for ˜24 hours before ATP measurement. Luminescence was measured in DTX880 multimode detector. Multiple concentrations (between 100 μM and 0.5 μM) of rotenone, antimycin, oligomycin, meclizine, hydroxyzine (Spectrum chemical), thiethylperazine (Prestwick), cyproheptadine (Sigma), pyrilamine (Spectrum chemical), tripelennamine (Spectrum chemical), diphenhydramine (Spectrum chemical), clemastine (Prestwick), bromopheniramine (Spectrum chemical), pheniramine (Spectrum chemical), promethazine (MSDiscovery 01500510), atropine (Sigma), and scopolamine (Sigma) were tested for their protective effect on STHdh^Q111/111 cells in serum free media. The dose which conferred maximum protection is shown. Luminescence was measured in DTX880 multimode detector.
Although it is not necessary to understand the mechanism of an invention, it is believed that the observed cell survival may be due to suppressed apoptosis based on caspase 3 and 7 cleavage. Improved cell viability was confirmed by microscopy.

[2] = system: C. elegans expressing 128Q huntingtin fragment in touch receptor neurons; conditions: even lower doses; cited from earlier work

Structure (SMILES) | Sglu/gal (log10 fold change) Score (MCH58 fibroblasts) | protection of STHdhQ111/111 cells after serum withdrawal [1] | toxicity in worms (Varma et al.) [2]
COc1ccc2c(c1)O[C@@H]1COc3cc(OC)c(OC)cc3[C@@H]1C2=O [Mundoserone] | 0.57 |  | 
C=C(C)[C@H]1Cc2c(ccc3c2O[C@@H]2COc4cc(OC)c(OC)cc4[C@@H]2C3=O)O1 [rotenone] |  | rescue | strong developmental delay with severe toxicity
